Measured values published in ChEMBL document CHEMBL5055626 (J Med Chem, 2021).
Activity calls are given as the source filed them. The calls are words filed in the database; no cut-off is given here. Where a SMILES comes first, the peptide text is derived from it. Bridges are numbered along the chain shown (N, C = ends). [ ]: non-standard residue; d: D form. sY = N[C@@H](Cc1ccc(OS(=O)(=O)O)cc1)C(=O)O

Columns and labels:
[1] = target: Neuronal acetylcholine receptor; alpha3/beta2 (Rattus norvegicus, UniProt P04757+P12390); test: Antagonist activity at rat alpha3beta2 nAChR expressed in xenopus oocytes assessed as inhibition of Ach- induced response at -70 mV holding potential preincubated for 5 mins followed by Ach stimulation by voltage-clamp based electrophysiological method; format: cell-based, Oocyte
Neuronal acetylcholine receptor; alpha3/beta2, sequence (P04757 whole entry): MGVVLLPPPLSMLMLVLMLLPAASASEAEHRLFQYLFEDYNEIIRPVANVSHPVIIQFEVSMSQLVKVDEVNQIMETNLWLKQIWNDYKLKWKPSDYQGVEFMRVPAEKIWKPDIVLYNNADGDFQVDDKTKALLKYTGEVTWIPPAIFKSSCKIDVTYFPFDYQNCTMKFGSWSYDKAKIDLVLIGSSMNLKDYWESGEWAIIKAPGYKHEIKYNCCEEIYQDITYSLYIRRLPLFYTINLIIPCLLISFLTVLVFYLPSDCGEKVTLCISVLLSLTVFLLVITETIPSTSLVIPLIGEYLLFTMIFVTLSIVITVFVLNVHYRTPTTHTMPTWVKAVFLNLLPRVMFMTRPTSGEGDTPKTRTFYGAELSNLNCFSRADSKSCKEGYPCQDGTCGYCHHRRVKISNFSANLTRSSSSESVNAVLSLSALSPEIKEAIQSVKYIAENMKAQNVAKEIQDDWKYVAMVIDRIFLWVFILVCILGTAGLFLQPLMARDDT
Neuronal acetylcholine receptor; alpha3/beta2, sequence (P12390 whole entry): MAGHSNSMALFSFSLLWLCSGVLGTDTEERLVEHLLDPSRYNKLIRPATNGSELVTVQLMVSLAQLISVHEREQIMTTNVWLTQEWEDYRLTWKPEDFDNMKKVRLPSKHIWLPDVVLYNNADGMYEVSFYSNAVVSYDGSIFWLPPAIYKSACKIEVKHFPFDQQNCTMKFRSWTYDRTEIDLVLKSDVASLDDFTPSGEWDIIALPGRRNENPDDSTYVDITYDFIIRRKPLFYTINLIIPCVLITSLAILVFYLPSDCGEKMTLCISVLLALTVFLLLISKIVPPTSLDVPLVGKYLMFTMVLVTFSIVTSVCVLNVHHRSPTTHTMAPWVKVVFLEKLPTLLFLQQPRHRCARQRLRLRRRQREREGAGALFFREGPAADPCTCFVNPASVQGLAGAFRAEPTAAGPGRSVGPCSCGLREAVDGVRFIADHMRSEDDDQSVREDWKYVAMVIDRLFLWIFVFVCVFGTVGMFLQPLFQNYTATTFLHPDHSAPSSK

[2] = target: Neuronal acetylcholine receptor subunit alpha-7 (Rattus norvegicus, UniProt Q05941); test: Antagonist activity at rat alpha7 nAChR expressed in xenopus oocytes assessed as inhibition of Ach- induced response at -70 mV holding potential preincubated for 5 mins followed by Ach stimulation by voltage-clamp based electrophysiological method; format: cell-based, Oocyte
Neuronal acetylcholine receptor subunit alpha-7 (Rattus norvegicus, UniProt Q05941), sequence (Q05941 whole entry): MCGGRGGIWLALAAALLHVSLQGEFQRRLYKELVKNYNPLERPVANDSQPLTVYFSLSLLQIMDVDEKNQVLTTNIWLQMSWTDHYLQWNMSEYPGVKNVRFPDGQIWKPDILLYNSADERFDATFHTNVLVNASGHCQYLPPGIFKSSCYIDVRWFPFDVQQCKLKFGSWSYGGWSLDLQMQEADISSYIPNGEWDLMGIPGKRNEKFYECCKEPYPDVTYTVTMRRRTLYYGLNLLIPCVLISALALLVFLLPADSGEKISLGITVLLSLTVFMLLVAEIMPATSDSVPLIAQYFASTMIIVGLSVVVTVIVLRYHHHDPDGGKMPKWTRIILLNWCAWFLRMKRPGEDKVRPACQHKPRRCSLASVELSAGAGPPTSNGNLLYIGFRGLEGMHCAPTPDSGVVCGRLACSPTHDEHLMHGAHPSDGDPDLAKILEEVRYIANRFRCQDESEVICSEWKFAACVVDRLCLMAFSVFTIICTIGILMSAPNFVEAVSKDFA

[3] = Antagonist activity at rat nAChR alpha7 Q141H mutant expressed in xenopus oocytes assessed as inhibition of Ach- induced response at -70 mV holding potential preincubated for 5 mins followed by Ach stimulation by voltage-clamp based electrophysiological method; format: cell-based; conditions: Oocyte
[4] = Antagonist activity at rat nAChR alpha7 N184S mutant expressed in xenopus oocytes assessed as inhibition of Ach- induced response at -70 mV holding potential preincubated for 5 mins followed by Ach stimulation by voltage-clamp based electrophysiological method; format: cell-based; conditions: Oocyte
[5] = Antagonist activity at rat nAChR alpha7 K186R mutant expressed in xenopus oocytes assessed as inhibition of Ach- induced response at -70 mV holding potential preincubated for 5 mins followed by Ach stimulation by voltage-clamp based electrophysiological method; format: cell-based; conditions: Oocyte
[6] = target: Neuronal acetylcholine receptor subunit alpha-7 (Homo sapiens, UniProt P36544); format: cell-based, Oocyte
Neuronal acetylcholine receptor subunit alpha-7 (Homo sapiens, UniProt P36544), sequence (P36544 whole entry): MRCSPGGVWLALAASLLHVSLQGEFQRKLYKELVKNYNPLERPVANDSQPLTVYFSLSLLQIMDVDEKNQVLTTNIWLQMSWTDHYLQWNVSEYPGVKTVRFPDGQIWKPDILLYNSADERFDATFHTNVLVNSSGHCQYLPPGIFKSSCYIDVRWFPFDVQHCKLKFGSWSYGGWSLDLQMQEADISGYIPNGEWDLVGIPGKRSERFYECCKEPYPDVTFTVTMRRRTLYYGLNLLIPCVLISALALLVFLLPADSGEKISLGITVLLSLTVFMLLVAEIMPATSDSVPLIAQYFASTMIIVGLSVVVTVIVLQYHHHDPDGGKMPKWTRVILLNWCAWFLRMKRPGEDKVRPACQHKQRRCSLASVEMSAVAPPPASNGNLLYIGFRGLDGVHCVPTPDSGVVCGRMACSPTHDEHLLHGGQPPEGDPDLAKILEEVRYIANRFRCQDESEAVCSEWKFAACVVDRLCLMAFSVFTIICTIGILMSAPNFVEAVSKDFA

[7] = Antagonist activity at human nAChR alpha7 S184N mutant expressed in xenopus oocytes assessed as inhibition of Ach- induced response at -70 mV holding potential preincubated for 5 mins followed by Ach stimulation by voltage-clamp based electrophysiological method; format: cell-based; conditions: Oocyte
[8] = Antagonist activity at human nAChR alpha7 R186K mutant expressed in xenopus oocytes assessed as inhibition of Ach- induced response at -70 mV holding potential preincubated for 5 mins followed by Ach stimulation by voltage-clamp based electrophysiological method; format: cell-based; conditions: Oocyte
[9] = Antagonist activity at human nAChR alpha7 S184N/R186K double mutant expressed in xenopus oocytes assessed as inhibition of Ach- induced response at -70 mV holding potential preincubated for 5 mins followed by Ach stimulation by voltage-clamp based electrophysiological method; format: cell-based; conditions: Oocyte
[10] = target: Nicotinic acetylcholine receptor alpha6/alpha3/beta4 (Homo sapiens, UniProt P30926+P32297+Q15825); test: Antagonist activity at rat alpha6/alpha3beta4 nAChR expressed in xenopus oocytes assessed as inhibition of Ach- induced response at -70 mV holding potential preincubated for 5 mins followed by Ach stimulation by voltage-clamp based electrophysiological method; format: cell-based, Oocyte
[11] = Antagonist activity at rat alpha6/ alpha3beta2beta3 nAChR expressed in xenopus oocytes assessed as inhibition of Ach- induced response at -70 mV holding potential preincubated for 5 mins followed by Ach stimulation by voltage-clamp based electrophysiological method; format: cell-based; conditions: Oocyte
[12] = target: Neuronal acetylcholine receptor; alpha2/beta2 (Rattus norvegicus, UniProt P12389+P12390); test: Antagonist activity at rat alpha2beta2 nAChR expressed in xenopus oocytes assessed as inhibition of Ach- induced response at -70 mV holding potential preincubated for 5 mins followed by Ach stimulation by voltage-clamp based electrophysiological method; format: cell-based, Oocyte
Neuronal acetylcholine receptor; alpha2/beta2, sequence (P12389 whole entry): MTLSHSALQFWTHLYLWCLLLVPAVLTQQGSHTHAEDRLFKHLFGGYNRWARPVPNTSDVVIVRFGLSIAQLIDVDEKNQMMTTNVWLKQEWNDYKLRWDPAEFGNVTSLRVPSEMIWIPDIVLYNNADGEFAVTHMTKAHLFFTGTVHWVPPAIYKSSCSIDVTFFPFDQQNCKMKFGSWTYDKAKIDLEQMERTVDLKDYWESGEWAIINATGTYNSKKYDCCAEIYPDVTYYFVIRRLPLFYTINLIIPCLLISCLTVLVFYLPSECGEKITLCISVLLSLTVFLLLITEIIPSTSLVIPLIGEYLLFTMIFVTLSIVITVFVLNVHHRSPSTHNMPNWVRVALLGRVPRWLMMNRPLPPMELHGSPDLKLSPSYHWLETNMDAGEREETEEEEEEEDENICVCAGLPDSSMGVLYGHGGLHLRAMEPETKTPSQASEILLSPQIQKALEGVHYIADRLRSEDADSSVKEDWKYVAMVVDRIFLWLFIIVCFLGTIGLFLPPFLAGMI
Neuronal acetylcholine receptor; alpha2/beta2, sequence (P12390 whole entry): as the sequence (P12390 whole entry) above

[13] = target: Neuronal acetylcholine receptor; alpha2/beta4 (Rattus norvegicus, UniProt P12389+P12392); test: Antagonist activity at rat alpha2beta4 nAChR expressed in xenopus oocytes assessed as inhibition of Ach- induced response at -70 mV holding potential preincubated for 5 mins followed by Ach stimulation by voltage-clamp based electrophysiological method; format: cell-based, Oocyte
Neuronal acetylcholine receptor; alpha2/beta4, sequence (P12389 whole entry): as the sequence (P12389 whole entry) above
Neuronal acetylcholine receptor; alpha2/beta4, sequence (P12392 whole entry): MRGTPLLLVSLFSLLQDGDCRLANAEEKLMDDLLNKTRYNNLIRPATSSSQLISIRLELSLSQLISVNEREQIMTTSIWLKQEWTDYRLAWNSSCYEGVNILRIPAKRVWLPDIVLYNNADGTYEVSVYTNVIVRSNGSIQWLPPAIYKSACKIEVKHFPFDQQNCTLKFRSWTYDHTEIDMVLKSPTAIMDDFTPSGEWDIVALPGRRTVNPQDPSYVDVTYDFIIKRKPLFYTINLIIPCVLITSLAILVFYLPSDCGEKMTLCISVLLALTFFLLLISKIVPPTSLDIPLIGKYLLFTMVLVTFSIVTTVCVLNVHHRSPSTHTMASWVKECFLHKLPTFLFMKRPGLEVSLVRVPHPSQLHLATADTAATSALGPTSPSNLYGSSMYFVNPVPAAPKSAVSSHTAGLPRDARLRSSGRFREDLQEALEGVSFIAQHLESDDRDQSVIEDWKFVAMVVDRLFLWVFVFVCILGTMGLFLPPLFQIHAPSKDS

[14] = target: Neuronal acetylcholine receptor; alpha3/beta4 (Rattus norvegicus, UniProt P04757+P12392); test: Antagonist activity at rat alpha3beta4 nAChR expressed in xenopus oocytes assessed as inhibition of Ach- induced response at -70 mV holding potential preincubated for 5 mins followed by Ach stimulation by voltage-clamp based electrophysiological method; format: cell-based, Oocyte
[15] = target: Neuronal acetylcholine receptor; alpha4/beta2 (Rattus norvegicus, UniProt P09483+P12390); test: Antagonist activity at rat alpha4beta2 nAChR expressed in xenopus oocytes assessed as inhibition of Ach- induced response at -70 mV holding potential preincubated for 5 mins followed by Ach stimulation by voltage-clamp based electrophysiological method; format: cell-based, Oocyte
[16] = target: Neuronal acetylcholine receptor; alpha4/beta4 (Rattus norvegicus, UniProt P09483+P12392); test: Antagonist activity at rat alpha4beta4 nAChR expressed in xenopus oocytes assessed as inhibition of Ach- induced response at -70 mV holding potential preincubated for 5 mins followed by Ach stimulation by voltage-clamp based electrophysiological method; format: cell-based, Oocyte
[17] = target: Nicotinic acetylcholine receptor alpha9/alpha10 (Rattus norvegicus, UniProt P43144+Q9JLB5); test: Antagonist activity at rat alpha9alpha10 nAChR expressed in xenopus oocytes assessed as inhibition of Ach- induced response at -70 mV holding potential preincubated for 5 mins followed by Ach stimulation by voltage-clamp based electrophysiological method; format: cell-based, Oocyte
Nicotinic acetylcholine receptor alpha9/alpha10, sequence (P43144 whole entry): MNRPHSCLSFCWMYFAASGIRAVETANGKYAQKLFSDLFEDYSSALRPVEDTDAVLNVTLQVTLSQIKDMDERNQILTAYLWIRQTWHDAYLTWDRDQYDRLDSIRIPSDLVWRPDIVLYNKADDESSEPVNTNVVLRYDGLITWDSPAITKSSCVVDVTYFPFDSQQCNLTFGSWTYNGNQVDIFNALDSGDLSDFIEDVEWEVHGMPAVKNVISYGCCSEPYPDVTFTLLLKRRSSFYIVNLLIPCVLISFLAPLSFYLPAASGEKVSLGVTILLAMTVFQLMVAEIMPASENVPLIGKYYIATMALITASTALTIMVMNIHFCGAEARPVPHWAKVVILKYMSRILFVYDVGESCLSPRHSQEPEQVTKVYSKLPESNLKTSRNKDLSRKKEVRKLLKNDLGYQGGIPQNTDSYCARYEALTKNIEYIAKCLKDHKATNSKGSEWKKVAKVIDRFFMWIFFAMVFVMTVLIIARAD
Nicotinic acetylcholine receptor alpha9/alpha10, sequence (Q9JLB5 whole entry): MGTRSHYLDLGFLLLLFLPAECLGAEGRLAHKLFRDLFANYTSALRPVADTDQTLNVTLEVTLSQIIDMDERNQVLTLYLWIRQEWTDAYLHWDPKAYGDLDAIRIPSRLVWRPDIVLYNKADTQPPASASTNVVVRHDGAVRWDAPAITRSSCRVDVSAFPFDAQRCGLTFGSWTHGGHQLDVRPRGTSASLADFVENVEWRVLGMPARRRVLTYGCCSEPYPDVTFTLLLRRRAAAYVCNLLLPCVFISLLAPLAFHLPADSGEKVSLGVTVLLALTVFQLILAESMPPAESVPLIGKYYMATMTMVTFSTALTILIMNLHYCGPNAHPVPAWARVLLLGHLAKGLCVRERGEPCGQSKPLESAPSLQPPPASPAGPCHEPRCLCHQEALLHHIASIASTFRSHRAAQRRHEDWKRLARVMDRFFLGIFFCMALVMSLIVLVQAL

[18] = target: Nicotinic acetylcholine receptor alpha9/alpha10 (Rattus norvegicus) (UniProt P43144+Q9JLB5); test: Antagonist activity at rat alpha9alpha10 nAChR expressed in xenopus oocytes assessed as inhibition of Ach- induced response at 10 uM at -70 mV holding potential preincubated for 5 mins followed by Ach stimulation by voltage-clamp based electrophysiological method; format: cell-based; conditions: Oocyte
[19] = target: Neuronal acetylcholine receptor; alpha2/beta2 (Rattus norvegicus) (UniProt P12389+P12390); test: Antagonist activity at rat alpha2beta2 nAChR expressed in xenopus oocytes assessed as inhibition of Ach- induced response at 10 uM at -70 mV holding potential preincubated for 5 mins followed by Ach stimulation by voltage-clamp based electrophysiological method; format: cell-based; conditions: Oocyte
[20] = target: Neuronal acetylcholine receptor; alpha2/beta4 (Rattus norvegicus) (UniProt P12389+P12392); test: Antagonist activity at rat alpha2beta4 nAChR expressed in xenopus oocytes assessed as inhibition of Ach- induced response at 10 uM at -70 mV holding potential preincubated for 5 mins followed by Ach stimulation by voltage-clamp based electrophysiological method; format: cell-based; conditions: Oocyte
[21] = target: Neuronal acetylcholine receptor; alpha3/beta4 (Rattus norvegicus) (UniProt P04757+P12392); test: Antagonist activity at rat alpha3beta4 nAChR expressed in xenopus oocytes assessed as inhibition of Ach- induced response at 10 uM at -70 mV holding potential preincubated for 5 mins followed by Ach stimulation by voltage-clamp based electrophysiological method; format: cell-based; conditions: Oocyte
[22] = target: Neuronal acetylcholine receptor; alpha4/beta2 (Rattus norvegicus) (UniProt P09483+P12390); test: Antagonist activity at rat alpha4beta2 nAChR expressed in xenopus oocytes assessed as inhibition of Ach- induced response at 10 uM at -70 mV holding potential preincubated for 5 mins followed by Ach stimulation by voltage-clamp based electrophysiological method; format: cell-based; conditions: Oocyte
[23] = target: Neuronal acetylcholine receptor; alpha4/beta4 (Rattus norvegicus) (UniProt P09483+P12392); test: Antagonist activity at rat alpha4beta4 nAChR expressed in xenopus oocytes assessed as inhibition of Ach- induced response at 10 uM at -70 mV holding potential preincubated for 5 mins followed by Ach stimulation by voltage-clamp based electrophysiological method; format: cell-based; conditions: Oocyte

SMILES: C[C@@H]1NC(=O)[C@H](C)NC(=O)[C@@H]2CSSC[C@H](NC(=O)CNC(=O)CN)C(=O)N[C@@H](CSSC[C@@H](C(N)=O)NC(=O)[C@H](Cc3ccc(OS(=O)(=O)O)cc3)NC(=O)[C@H](CC(=O)O)NC(=O)[C@H](CCC(N)=O)NC(=O)[C@H](CC(N)=O)NC(=O)[C@H](CC(N)=O)NC1=O)C(=O)N[C@@H](CO)C(=O)N[C@@H](Cc1cnc[nH]1)C(=O)N1CCC[C@H]1C(=O)N[C@@H](C)C(=O)N2
- IC50 [1]: 0.28 nM

SMILES: CC(C)C[C@@H]1NC(=O)[C@H](CC(=O)O)NC(=O)[C@@H]2CCCN2C(=O)[C@H](Cc2cnc[nH]2)NC(=O)[C@H](C)NC(=O)[C@H](CC(N)=O)NC(=O)[C@H](CCCNC(=N)N)NC(=O)[C@@H]2CSSC[C@H](NC(=O)CN)C(=O)N[C@@H](CSSC[C@@H](C(=O)O)NC1=O)C(=O)N[C@@H](CO)C(=O)N[C@@H](CC(=O)O)C(=O)N1CCC[C@H]1C(=O)N1CCC[C@H]1C(=O)N2 (H-GCCSDPPCRNAHPDLC-OH; disulfide 2-8, 3-16)
- IC50 [2]: 200 nM
- IC50 [3]: 280 nM
- IC50 [4]: 3290 nM
- IC50 [5]: > 10000 nM
- IC50 [6]: > 10000 nM
- IC50 [7]: > 10000 nM
- IC50 [8]: 1580 nM
- IC50 [9]: 280 nM

SMILES: CC[C@H](C)[C@H](N)C(=O)N[C@@H](CCCNC(=N)N)C(=O)N[C@@H](CC(=O)O)C(=O)N[C@@H](CCC(=O)O)C(=O)N[C@H]1CSSC[C@H]2NC(=O)[C@H](C)NC(=O)[C@@H]3CCCN3C(=O)[C@H](CC(N)=O)NC(=O)[C@H](CO)NC(=O)[C@H](CSSC[C@@H](C(=O)N[C@@H](CCCNC(=N)N)C(=O)N[C@@H](CCCNC(=N)N)C(=O)N[C@@H](CCCNC(=N)N)C(=O)O)NC(=O)[C@H](C(C)C)NC(=O)[C@H](Cc3cnc[nH]3)NC(=O)[C@@H]3CCCN3C(=O)[C@H](CC(N)=O)NC(=O)[C@H](CC(N)=O)NC(=O)[C@H](C(C)C)NC(=O)[C@H](CCCNC(=N)N)NC2=O)NC1=O
- IC50 [1]: 18 nM

SMILES: CSCC[C@@H]1NC(=O)[C@H](CC(N)=O)NC(=O)[C@@H]2CSSC[C@H](NC(=O)CN)C(=O)N[C@@H](CSSC[C@@H](C(=O)O)NC(=O)[C@H](Cc3ccc(OS(=O)(=O)O)cc3)NC(=O)[C@H](CC(=O)O)NC(=O)[C@@H]3CCCN3C(=O)[C@H](CC(N)=O)NC(=O)[C@H](CC(N)=O)NC1=O)C(=O)N[C@@H](CO)C(=O)N[C@@H](CC(=O)O)C(=O)N1CCC[C@H]1C(=O)N[C@@H](CCCNC(=N)N)C(=O)N2 (H-GCCSDPRCNMNNPD[sY]C-OH; disulfide 2-8, 3-16)
- IC50 [2]: 30 nM

SMILES: C[C@@H]1NC(=O)[C@@H]2CSSC[C@H](NC(=O)CN)C(=O)N[C@@H](CSSC[C@@H](C(=O)N[C@@H](CCCNC(=N)N)C(=O)O)NC(=O)[C@H](Cc3cnc[nH]3)NC(=O)[C@H](CCC(=O)O)NC(=O)[C@H](Cc3cnc[nH]3)NC1=O)C(=O)N[C@@H](CO)C(=O)N[C@@H](CC(N)=O)C(=O)N1CCC[C@H]1C(=O)N1CCC[C@H]1C(=O)N2 (H-GCCSNPPCAHEHCR-OH; disulfide 2-8, 3-13)
- IC50 [2]: 1100 nM
- IC50 [10]: > 10000 nM
- IC50 [1]: > 10000 nM
- IC50 [11]: 630 nM
- IC50 [12]: > 10000 nM
- IC50 [13]: > 10000 nM
- IC50 [14]: > 10000 nM
- IC50 [15]: > 10000 nM
- IC50 [16]: > 10000 nM
- IC50 [17]: > 10000 nM
- inhibition [18]: inactive
- inhibition [19]: inactive
- inhibition [20]: inactive
- inhibition [21]: inactive
- inhibition [22]: inactive
- inhibition [23]: inactive

SMILES: C[C@@H]1NC(=O)[C@@H]2CSSC[C@H](NC(=O)[C@@H](N)CCC(N)=O)C(=O)N[C@@H](CSSC[C@@H](C(N)=O)NC(=O)[C@H](Cc3cnc[nH]3)NC(=O)[C@H](CCC(=O)O)NC(=O)[C@H](Cc3cnc[nH]3)NC1=O)C(=O)N[C@@H](CO)C(=O)N[C@@H](CC(N)=O)C(=O)N1CCC[C@H]1C(=O)N1CCC[C@H]1C(=O)N2 (H-QCCSNPPCAHEHC-NH2; disulfide 2-8, 3-13)
- IC50 [2]: 470 nM
- IC50 [10]: > 10000 nM
- IC50 [1]: 1560 nM
- IC50 [11]: 550 nM
- IC50 [12]: > 10000 nM
- IC50 [13]: > 10000 nM
- IC50 [14]: > 10000 nM
- IC50 [15]: > 10000 nM
- IC50 [16]: > 10000 nM
- IC50 [17]: > 10000 nM
- inhibition [18]: inactive
- inhibition [19]: inactive
- inhibition [20]: inactive
- inhibition [21]: inactive
- inhibition [22]: inactive
- inhibition [23]: inactive

SMILES: CC[C@H](C)[C@@H]1NC(=O)[C@H](Cc2cnc[nH]2)NC(=O)[C@@H]2CCCN2C(=O)[C@H](CC(N)=O)NC(=O)[C@H](CC(N)=O)NC(=O)[C@H](C(C)C)NC(=O)[C@H](CC(N)=O)NC(=O)[C@@H]2CSSC[C@H](NC(=O)CN)C(=O)N[C@@H](CSSC[C@@H](C(=O)O)NC1=O)C(=O)N[C@@H](CO)C(=O)N[C@@H](CC(=O)O)C(=O)N1CCC[C@H]1C(=O)N[C@@H](C)C(=O)N2 (H-GCCSDPACNVNNPHIC-OH; disulfide 2-8, 3-16)
- IC50 [2]: 100 nM
- IC50 [3]: 120 nM
- IC50 [4]: 130 nM
- IC50 [5]: 7480 nM
- IC50 [6]: 13700 nM
- IC50 [7]: 7140 nM
- IC50 [8]: 200 nM
- IC50 [9]: 99 nM
